The molecules below were run on Rattus norvegicus (assay: Antiedemic activity against […]-induced paw edema in sc dosed Albino rat).
Type: functional
`COC(=O)[C@@]1(C)CC[C@]2(C(=O)O)CC[C@]3(C)C(=C[C@@H](O)[C@@H]4[C@@]5(C)C[C@H](O)[C@H](O)[C@@](C)(C=O)[C@@H]5CC[C@]43C)[C@H]2C1` gave an ED50 of 10 mg/kg. In the case of `COC(=O)[C@@]1(C)CC[C@]2(C(=O)O)CC[C@]3(C)C(=CC[C@@H]4[C@@]5(C)C[C@H](O)[C@H](O)[C@@](C)(C=O)[C@@H]5CC[C@]43C)[C@H]2C1`, the ED50 was 10 mg/kg. `C[C@]12CCC(=O)C=C1CC[C@@H]1[C@@H]2C(=O)C[C@@]2(C)[C@H]1CC[C@]2(O)C(=O)CO` [CORTISONE] was tested, and the ED50 was 30 mg/kg. `C[C@]12C=CC(=O)C=C1CC[C@@H]1[C@@H]2[C@@H](O)C[C@@]2(C)[C@H]1CC[C@]2(O)C(=O)CO` [PREDNISOLONE] gave an ED50 of 60 mg/kg.
